Measured values published in ChEMBL document CHEMBL4311992, “Discovery of 3-(((9H-purin-6-yl)amino)methyl)-4,6-dimethylpyridin-2(1H)-one derivatives as novel tubulin polymerization inhibitors for treatment of cancer” (Eur J Med Chem, 2019).
Activity calls are given as the source filed them. The calls are words filed in the database; no cut-off is given here.

Assays:
[1] = tested on: SW480; test: Antiproliferative activity against human SW480 cells assessed as reduction in cell viability after 72 hrs by MTT assay; assay type: functional, cell-based; settings: SW480, 72 h
[2] = tested on: Angiopoietin-1 receptor (Homo sapiens), Q02763 [Q939H,Q940H]; test: Inhibition of human Tie2 Q939H/Q940H mutant (771 to end residues) using poly(Glu, Tyr) 4:1 as substrate measured after 40 mins in presence of [gamma33P]ATP by scintillation counting method; design: scale not given: the % may be the effect or the level left
[3] = target: Serine/threonine-protein kinase D2 (Homo sapiens) (UniProt Q9BZL6); test: Inhibition of recombinant full-length human PKD2 assessed as residual activity at 10 uM using KKLNRTLSVA as substrate measured after 40 mins in presence of [gamma33P]ATP by scintillation counting method
[4] = target: Myosin-IIIb (Homo sapiens) (UniProt Q8WXR4); test: Inhibition of recombinant full-length human MYO3B (1 to 326 residues) assessed as residual activity at 10 uM using RLGRDKYKTLRQIRQ as substrate measured after 40 mins in presence of [gamma33P]ATP by scintillation counting method
[5] = target: Tyrosine-protein kinase TXK (Homo sapiens) (UniProt P42681); test: Inhibition of human Txk (256 to end residues) using GEEPLYWSFPAKKK as substrate measured after 40 mins in presence of [gamma33P]ATP by scintillation counting method; design: scale not given: the % may be the effect or the level left
[6] = target: Protein-tyrosine kinase 6 (Homo sapiens) (UniProt Q13882); test: Inhibition of full-length recombinant human BRK assessed as residual activity at 10 uM using poly(Glu, Tyr) 4:1 as substrate measured after 40 mins in presence of [gamma33P]ATP by scintillation counting method
[7] = target: Inhibitor of nuclear factor kappa-B kinase subunit epsilon (Homo sapiens) (UniProt Q14164); test: Inhibition of recombinant full-length human IKKepsilon assessed as residual activity at 10 uM using casein as substrate measured after 40 mins in presence of [gamma33P]ATP by scintillation counting method
[8] = target: Inhibitor of nuclear factor kappa-B kinase subunit alpha (Homo sapiens) (UniProt O15111); test: Inhibition of recombinant full-length human IKKalpha ([…]) assessed as residual activity at 10 uM using peptide substrate measured after 40 mins in presence of [gamma33P]ATP by scintillation counting method
[9] = target: Death-associated protein kinase 1 (Homo sapiens) (UniProt P53355); test: Inhibition of recombinant human DAPK1 (1 to 296 residues) assessed as residual activity at 10 uM using KKLNRTLSFAEPG as substrate measured after 40 mins in presence of [gamma33P]ATP by scintillation counting method
[10] = target: Tyrosine-protein kinase CSK (Homo sapiens) (UniProt P41240); test: Inhibition of full-length recombinant human CSK assessed as residual activity at 10 uM using poly(Glu, Tyr) 4:1 as substrate measured after 40 mins in presence of [gamma33P]ATP by scintillation counting method
[11] = tested on: Mast/stem cell growth factor receptor Kit (Homo sapiens), P10721 [D816H]; test: Inhibition of recombinant human c-Kit D816H mutant (544 to end residues) assessed as residual activity at 10 uM using GGMEDIYFEFMGGKKK as substrate measured after 40 mins in presence of [gamma33P]ATP by scintillation counting method
[12] = tested on: Tyrosine-protein kinase ABL1 (Homo sapiens), P00519 [Q252H]; test: Inhibition of recombinant human ABL Q252H mutant (27 to end residues) assessed as residual activity at 10 uM using EAIYAAPFAKKK as substrate measured after 40 mins in presence of [gamma33P]ATP by scintillation counting method
[13] = target: Calcium/calmodulin-dependent protein kinase type II subunit beta (Homo sapiens) (UniProt Q13554); test: Inhibition of recombinant full-length human CaMK2beta (1 to 315 residues) assessed as residual activity at 10 uM using calmodulin as substrate measured after 40 mins in presence of [gamma33P]ATP by scintillation counting method
[14] = tested on: SW-620; test: Cell cycle arrest in human SW620 cells assessed as up regulation of CDK1 expression up to 150 nM after 24 hrs by Western blot analysis; assay type: functional, cell-based
[15] = tested on: HCT-116; test: Induction of apoptosis in human HCT116 cells assessed as increase in cleaved caspase9 expression measured after 48 hrs by Western blot analysis; assay type: functional, cell-based
[16] = target: Serine/threonine-protein kinase Chk2 (Homo sapiens) (UniProt O96017); test: Inhibition of recombinant human CHK2 (5 to end residues) assessed as residual activity at 10 uM using KKKVSRSGLYRSPSMPENLNRPR as substrate measured after 40 mins in presence of [gamma33P]ATP by scintillation counting method
[17] = target: Dual specificity tyrosine-phosphorylation-regulated kinase 1A (Homo sapiens) (UniProt Q13627); test: Inhibition of recombinant full-length human DYRK1A assessed as residual activity at 10 uM using RRRFRPASPLRGPPK as substrate measured after 40 mins in presence of [gamma33P]ATP by scintillation counting method
[18] = tested on: Eukaryotic elongation factor 2 kinase (Homo sapiens), O00418 [H23R]; test: Inhibition of recombinant human EEF2K H23R mutant (2 to end residues) assessed as residual activity at 10 uM using RKKFGESEKTKTKEFL as substrate measured after 40 mins in presence of [gamma33P]ATP by scintillation counting method
[19] = target: Ephrin type-A receptor 1 (Homo sapiens) (UniProt P21709); test: Inhibition of recombinant human EphA1 (568 to end residues) assessed as residual activity at 10 uM using KKKSPGEYVNIEF as substrate measured after 40 mins in presence of [gamma33P]ATP by scintillation counting method
[20] = target: Mitogen-activated protein kinase 8 (Homo sapiens) (UniProt P45983); test: Inhibition of recombinant full-length human JNK1alpha1 assessed as residual activity at 10 uM using ATF2 as substrate measured after 40 mins in presence of [gamma33P]ATP by scintillation counting method
[21] = target: Serine/threonine-protein kinase 16 (Homo sapiens) (UniProt O75716); test: Inhibition of human STK16 assessed as residual activity at 10 uM by radiometric method
[22] = target: DNA-dependent protein kinase catalytic subunit (Homo sapiens) (UniProt P78527); test: Inhibition of recombinant full-length human DNA-PK assessed as residual activity at 10 uM using GST-cMyc-p53 as substrate measured after 40 mins by fluorescence assay
[23] = tested on: PI3-kinase p110-alpha/p85-alpha (Homo sapiens), P27986+P42336 [H1047R]; test: Inhibition of recombinant full-length human PI3K p110alpha/p85alpha H1047R mutant assessed as residual activity at 10 uM using phosphatidylinositol-4, 5-bisphosphate as substrate measured after 40 mins by fluorescence assay; assay type: protein-complex assay
[24] = Toxicity in nude BALB/c mouse assessed as change in ALT level at 40 to 80 mg/kg, po once daily for 4 weeks measured post-last dose; assay type: organism-based; settings: in vivo, 672 h

Chain of Tyrosine-protein kinase CSK (Homo sapiens) (P41240 2-450 limits assumed): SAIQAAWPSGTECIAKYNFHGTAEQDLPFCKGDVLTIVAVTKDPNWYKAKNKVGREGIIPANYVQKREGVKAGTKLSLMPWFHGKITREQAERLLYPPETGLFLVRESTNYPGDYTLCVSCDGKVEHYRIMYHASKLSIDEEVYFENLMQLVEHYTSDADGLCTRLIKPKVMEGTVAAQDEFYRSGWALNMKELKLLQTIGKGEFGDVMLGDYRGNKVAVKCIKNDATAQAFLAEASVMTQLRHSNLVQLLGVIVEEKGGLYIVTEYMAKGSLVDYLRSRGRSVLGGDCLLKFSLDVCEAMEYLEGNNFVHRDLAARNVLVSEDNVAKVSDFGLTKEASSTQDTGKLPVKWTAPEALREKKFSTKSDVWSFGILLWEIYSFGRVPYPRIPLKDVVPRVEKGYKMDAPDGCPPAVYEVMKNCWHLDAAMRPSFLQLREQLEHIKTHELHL
Chain of Tyrosine-protein kinase TXK (Homo sapiens) (P42681 whole entry): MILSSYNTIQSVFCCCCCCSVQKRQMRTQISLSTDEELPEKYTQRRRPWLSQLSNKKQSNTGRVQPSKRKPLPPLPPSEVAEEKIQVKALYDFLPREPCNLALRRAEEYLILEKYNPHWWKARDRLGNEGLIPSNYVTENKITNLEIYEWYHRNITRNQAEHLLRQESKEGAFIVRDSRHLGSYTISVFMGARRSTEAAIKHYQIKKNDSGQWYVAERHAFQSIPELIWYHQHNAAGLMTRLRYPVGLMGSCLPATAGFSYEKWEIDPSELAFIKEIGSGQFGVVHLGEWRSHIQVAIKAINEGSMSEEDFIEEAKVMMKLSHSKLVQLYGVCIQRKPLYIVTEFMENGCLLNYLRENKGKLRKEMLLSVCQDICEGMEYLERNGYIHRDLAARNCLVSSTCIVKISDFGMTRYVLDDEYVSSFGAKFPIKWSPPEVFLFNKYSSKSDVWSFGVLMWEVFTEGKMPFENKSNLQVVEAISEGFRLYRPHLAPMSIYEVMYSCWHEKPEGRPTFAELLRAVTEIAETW
Chain of Serine/threonine-protein kinase D2 (Homo sapiens) (Q9BZL6 whole entry, the tested form may be a part): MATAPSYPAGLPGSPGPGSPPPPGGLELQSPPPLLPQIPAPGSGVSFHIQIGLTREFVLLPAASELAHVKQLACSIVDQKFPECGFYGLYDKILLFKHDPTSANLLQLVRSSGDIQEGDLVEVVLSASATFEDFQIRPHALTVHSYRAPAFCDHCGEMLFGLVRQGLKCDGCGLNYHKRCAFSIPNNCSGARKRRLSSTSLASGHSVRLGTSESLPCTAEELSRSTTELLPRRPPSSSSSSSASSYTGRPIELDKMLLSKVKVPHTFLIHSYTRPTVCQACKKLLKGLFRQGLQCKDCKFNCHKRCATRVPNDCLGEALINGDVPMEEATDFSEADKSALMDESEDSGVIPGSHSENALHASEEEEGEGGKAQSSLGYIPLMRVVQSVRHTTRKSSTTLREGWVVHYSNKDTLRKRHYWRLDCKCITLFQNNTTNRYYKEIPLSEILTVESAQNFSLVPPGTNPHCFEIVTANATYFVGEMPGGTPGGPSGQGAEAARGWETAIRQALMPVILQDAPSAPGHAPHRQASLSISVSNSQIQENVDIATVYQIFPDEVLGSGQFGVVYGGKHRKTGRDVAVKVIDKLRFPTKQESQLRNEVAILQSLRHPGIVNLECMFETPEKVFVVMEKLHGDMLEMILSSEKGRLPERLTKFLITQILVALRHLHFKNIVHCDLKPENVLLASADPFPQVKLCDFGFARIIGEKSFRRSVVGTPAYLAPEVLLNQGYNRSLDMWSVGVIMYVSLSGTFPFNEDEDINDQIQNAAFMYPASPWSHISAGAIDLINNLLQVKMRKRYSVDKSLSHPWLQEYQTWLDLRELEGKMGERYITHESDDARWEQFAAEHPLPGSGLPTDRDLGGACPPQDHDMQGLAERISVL
Chain of Eukaryotic elongation factor 2 kinase (Homo sapiens), O00418 [H23R] (O00418 whole entry H23R): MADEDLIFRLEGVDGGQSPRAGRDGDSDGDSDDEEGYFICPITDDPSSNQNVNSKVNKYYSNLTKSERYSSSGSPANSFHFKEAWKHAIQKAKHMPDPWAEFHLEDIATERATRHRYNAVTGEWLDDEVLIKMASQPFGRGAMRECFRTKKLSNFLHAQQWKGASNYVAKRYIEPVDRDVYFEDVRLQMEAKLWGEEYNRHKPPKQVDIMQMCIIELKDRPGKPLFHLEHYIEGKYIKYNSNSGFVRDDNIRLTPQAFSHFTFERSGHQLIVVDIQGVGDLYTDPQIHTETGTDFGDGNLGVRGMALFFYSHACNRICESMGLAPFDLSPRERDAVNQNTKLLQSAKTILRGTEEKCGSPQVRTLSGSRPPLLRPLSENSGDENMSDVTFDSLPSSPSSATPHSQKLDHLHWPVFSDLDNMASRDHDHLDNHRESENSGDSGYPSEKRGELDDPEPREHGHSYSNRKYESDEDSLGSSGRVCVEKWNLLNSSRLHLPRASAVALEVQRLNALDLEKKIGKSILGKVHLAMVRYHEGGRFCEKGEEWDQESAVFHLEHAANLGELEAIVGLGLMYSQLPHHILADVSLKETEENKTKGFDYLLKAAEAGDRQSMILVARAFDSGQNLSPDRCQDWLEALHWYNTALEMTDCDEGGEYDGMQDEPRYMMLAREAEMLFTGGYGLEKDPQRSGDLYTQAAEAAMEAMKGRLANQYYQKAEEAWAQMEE
Chain of Serine/threonine-protein kinase 16 (Homo sapiens) (O75716 whole entry): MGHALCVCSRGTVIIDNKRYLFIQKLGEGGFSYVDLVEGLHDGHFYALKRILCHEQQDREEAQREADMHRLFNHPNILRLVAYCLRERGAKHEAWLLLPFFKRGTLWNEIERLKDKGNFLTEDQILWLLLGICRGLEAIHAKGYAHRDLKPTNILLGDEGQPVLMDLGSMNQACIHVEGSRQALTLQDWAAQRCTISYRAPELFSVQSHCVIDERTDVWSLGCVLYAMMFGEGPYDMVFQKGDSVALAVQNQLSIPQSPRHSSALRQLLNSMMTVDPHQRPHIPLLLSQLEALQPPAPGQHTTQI
Chain of Serine/threonine-protein kinase Chk2 (Homo sapiens) (O96017 whole entry): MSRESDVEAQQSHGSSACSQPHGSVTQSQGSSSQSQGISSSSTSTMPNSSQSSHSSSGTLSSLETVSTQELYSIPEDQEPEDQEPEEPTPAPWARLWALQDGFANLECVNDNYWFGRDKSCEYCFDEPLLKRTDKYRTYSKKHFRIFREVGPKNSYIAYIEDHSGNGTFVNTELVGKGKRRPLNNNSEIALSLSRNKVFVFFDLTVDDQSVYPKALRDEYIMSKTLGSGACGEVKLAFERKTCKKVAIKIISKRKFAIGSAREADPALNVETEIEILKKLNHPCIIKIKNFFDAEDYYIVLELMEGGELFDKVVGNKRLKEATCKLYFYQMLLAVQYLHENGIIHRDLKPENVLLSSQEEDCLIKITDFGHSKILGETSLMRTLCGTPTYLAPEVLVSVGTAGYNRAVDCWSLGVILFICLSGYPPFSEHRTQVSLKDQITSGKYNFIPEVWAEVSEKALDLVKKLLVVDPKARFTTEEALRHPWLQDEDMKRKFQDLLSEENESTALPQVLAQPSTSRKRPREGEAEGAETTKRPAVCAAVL
Chain of Calcium/calmodulin-dependent protein kinase type II subunit beta (Homo sapiens) (Q13554 whole entry, the tested form may be a part): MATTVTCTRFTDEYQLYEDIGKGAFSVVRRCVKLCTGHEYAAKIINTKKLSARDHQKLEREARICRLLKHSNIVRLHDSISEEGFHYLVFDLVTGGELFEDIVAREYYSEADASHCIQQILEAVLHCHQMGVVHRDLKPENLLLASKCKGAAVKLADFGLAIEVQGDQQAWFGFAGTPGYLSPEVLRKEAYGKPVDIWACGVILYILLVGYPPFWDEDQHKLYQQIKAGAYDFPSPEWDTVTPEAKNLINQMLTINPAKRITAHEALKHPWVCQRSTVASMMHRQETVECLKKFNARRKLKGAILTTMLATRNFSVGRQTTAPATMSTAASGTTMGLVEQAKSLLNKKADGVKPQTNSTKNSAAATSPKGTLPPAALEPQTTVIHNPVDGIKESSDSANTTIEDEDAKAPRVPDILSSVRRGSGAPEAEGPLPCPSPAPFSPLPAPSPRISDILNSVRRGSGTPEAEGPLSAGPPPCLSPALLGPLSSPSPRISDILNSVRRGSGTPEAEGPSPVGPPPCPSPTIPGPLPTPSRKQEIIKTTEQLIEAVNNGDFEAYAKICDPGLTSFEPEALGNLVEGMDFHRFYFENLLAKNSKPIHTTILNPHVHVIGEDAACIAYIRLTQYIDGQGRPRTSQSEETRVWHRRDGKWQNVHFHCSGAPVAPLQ
Chain of Inhibitor of nuclear factor kappa-B kinase subunit alpha (Homo sapiens) (O15111 whole entry, the tested form may be a part): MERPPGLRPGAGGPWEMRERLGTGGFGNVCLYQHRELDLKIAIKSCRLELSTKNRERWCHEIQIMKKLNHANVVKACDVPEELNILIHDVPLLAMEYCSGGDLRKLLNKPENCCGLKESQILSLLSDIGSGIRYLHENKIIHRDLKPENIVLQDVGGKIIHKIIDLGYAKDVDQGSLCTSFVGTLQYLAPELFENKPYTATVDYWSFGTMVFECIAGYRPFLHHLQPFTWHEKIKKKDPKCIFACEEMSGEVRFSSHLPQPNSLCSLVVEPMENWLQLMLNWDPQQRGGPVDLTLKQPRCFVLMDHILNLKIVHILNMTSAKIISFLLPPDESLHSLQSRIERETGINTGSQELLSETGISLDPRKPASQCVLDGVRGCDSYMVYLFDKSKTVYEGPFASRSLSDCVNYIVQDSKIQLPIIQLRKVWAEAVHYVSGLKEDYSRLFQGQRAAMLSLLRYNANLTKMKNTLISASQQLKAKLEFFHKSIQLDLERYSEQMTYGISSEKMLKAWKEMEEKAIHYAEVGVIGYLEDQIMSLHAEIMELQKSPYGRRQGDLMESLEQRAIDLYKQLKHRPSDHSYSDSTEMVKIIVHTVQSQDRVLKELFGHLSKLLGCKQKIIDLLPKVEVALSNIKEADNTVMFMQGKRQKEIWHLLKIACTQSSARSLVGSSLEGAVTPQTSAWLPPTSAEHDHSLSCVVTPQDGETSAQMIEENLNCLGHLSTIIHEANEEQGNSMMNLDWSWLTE

`Cc1cc(C)c(CNc2nc(Cl)nc3c2ncn3C2CCCC2)c(=O)[nH]1` gave an IC50 [1] of 64.5 nM, an Activity [2] of 75.5% and an Activity [3] of 120%. For the same compound, the Activity [4] was 111%, the Activity [5] was 84% and the Activity [6] was 100%. It also gave an Activity [7] of 98.5%, an Activity [8] of 88.5% and an Activity [9] of 114%. The Activity [10] was 98%, the Activity [11] was 101% and the Activity [12] was 106%. The Activity [13] was 99.5%, the Activity [14] was “Active” and the Activity [15] was “Dose-dependent effect”. The Activity [16] was 105%, the Activity [17] was 100% and the Activity [18] was 104%. For the same compound, the Activity [19] was 102%, the Activity [20] was 96% and the Activity [21] was 102%. The Activity [22] was 99%, the Activity [23] was 101% and the Activity [24] was “Non-Toxic”.
